The target in this assay is topoisomerase II. The experiment in a line: topoisomerase II activity inhibition assay (isoform not given). Format: biochemical.

Structures are written as SMILES.

Drawing on publication PMC10768243 (Microbial Cell Factories, 2024), this text covers IC50 for one molecule.

What is called IC50 is the concentration at which inhibition is half-maximal. Read a low IC50 as greater potency. With `CC[C@@]1(O)C(=O)OCc2c1cc1n(c2=O)Cc2cc3ccccc3nc2-1` [camptothecin], inhibition was half-maximal at 0.52 nM (IC50).
